# Measurements from US20260184700A1, “PDK1 REGULATORY COMPOUND AND COMPOSITION CONTAINING THE SAME” (PROVIBIO CO., LTD., priority 2024, published 2026).
# How the values were obtained:
# [1] = test system: bleomycin-treated Balb/c mice; experiment: Bleomycin-induced pulmonary fibrosis animal model; type: in vivo, mouse; details: bleomycin mice lung, vs BLM-treated group
# Text: To evaluate the therapeutic efficacy of the compound according to the present invention against pulmonary fibrosis, an animal model of pulmonary fibrosis induced by bleomycin intratracheal administration was established.
# For this purpose, 8-week-old male Balb/c mice were subjected to general anesthesia using an inhalation anesthetic (2-3% isoflurane in oxygen), followed by disinfection of the neck region, skin incision, and exposure of the trachea.
# Bleomycin (Sigma-Aldrich, USA) was directly administered into the trachea at a concentration of 5 mg/kg in a solution of 100 μL.
# Two days prior to Bleomycin administration, the compound of the present invention or the comparative drug was administered intraperitoneally at the specified concentration and dose, and the administration was continued once daily for a total of 14 days.
# The experimental groups included Normal, Bleomycin alone (BLM), and BLM plus the compound of the present invention (BLM+GO88, 0.2 mg/kg).
# Ten days later, the mice were euthanized humanely using carbon dioxide gas, the trachea was incised, and PBS was injected into the trachea to remove blood from the lungs.
# The lung tissue washed with PBS was excised, fixed in 4% paraformaldehyde solution for 24 hours, and then paraffin blocks and tissue sections were prepared. The prepared sections were subjected to pathological analysis using H & E, Masson's trichrome, and Sirius red staining.
# Additionally, immunohistochemical (IHC) staining was performed for α-SMA (α-smooth muscle actin), an indicator of lung fibroblast activation.
# [2] = test system: phospho-PDK1 in SU-DHL-8 cells; experiment: PDK1 phosphorylation (pPDK1) by flow cytometry in SU-DHL-8 cells; type: cell-based, human; details: SU-DHL-8, 24 hours, pPDK1-PE flow cytometry, vs control group
# Description: SU-DHL-8 cells were cultured in RPMI-1640 medium (containing 10% FBS, 100 U/mL penicillin, and 100 μg/mL streptomycin), and the cell concentration was adjusted to 1×10^6 cells/mL and seeded into a 12-well plate. After stabilizing the cells, the compound of the present invention was added, and the cells were cultured for 24 hours.
# After drug treatment, the cells were harvested, and the Fc receptor blocking process was performed. The cells were then fixed and permeabilized using the Intracellular Staining Kit (Cat. No. BD554715) from BD Biosciences. Subsequently, the intracellular pPDK1 was stained using the pPDK1-PE fluorescently labeled antibody (BD Biosciences).
# Referring to the figure, the vertical axis represents the phosphorylation level of PDK1 (phospho-PDK1 expression level), and the horizontal axis denotes the concentration-dependent treatment conditions of each compound.
# [3] = test system: MRL/lpr mice; experiment: Lupus animal model (MRL/lpr mice); type: in vivo, mouse
# Text: The MRL/MpJ-Faslpr/J (Hereinafter Referred to as “MRL/lpr”) used in this experiment is one of the representative animal models for systemic lupus erythematosus (SLE), known to produce various autoantibodies, including antinuclear antibodies, due to the lpr (lymphoproliferation) gene.
# In this invention, the period up to 9 weeks of age was considered the pre-disease stage, and the period after 23 weeks of age was considered the post-disease stage, and efficacy verification experiments using this model were conducted.
# MRL/lpr mice were imported from The Jackson Laboratory and acclimatized for one week in an SPF (Specific Pathogen Free) facility maintained at a temperature of 21-24° C., humidity of 40-60%, and a 12-hour light-dark cycle (lights on at 7:00 AM, lights off at 7:00 PM). […]
# The serum separated at the time of necropsy of the lupus animal model was analyzed using the ‘IgG (Total) Mouse Uncoated ELISA Kit (Invitrogen, Cat. #88-50400)’ to measure the concentration of total IgG.
# Capture antibody (anti-mouse IgG) diluted 1/250 in coating buffer was added to each well of a 96-well plate (Nunc™ MaxiSorp™ ELISA Plates, Uncoated, BioLegend, Cat. #423501) at 100 μl per well, and the plate was incubated at 4° C. for 16 hours.
# To investigate the effect of GO15F administration on changes in the ratio of immune cells in the spleen of a lupus animal model, the spleens of mice administered each compound were excised, cells were extracted, and the cells were suspended in MACS buffer (autoMACS Washing Solution, Miltenyi Biotec., Cat. #130-092-987).
# For flow cytometry analysis, FACS tubes (5 mL round tubes, Falcon, Cat. #352052) were used. To prevent non-specific binding of antibodies, 1 μg/mL of anti-mouse CD16/CD32 (InVivoPlus anti-mouse CD16/CD32, BioXCell, Cat. #BP0307) for 30 minutes to prevent non-specific binding of the antibody, then centrifuge at 1,500 rpm for 5 minutes and resuspend in 100 μL of MACS buffer.
# For B cells, each FACS tube was stained with 1 μg/mL of FITC-conjugated anti-B220 antibody (eBioscience™, Cat. #11-0452-81) at 4° C. for 30 minutes, then washed with 2 mL of MACS buffer.
# For T cells, each FACS tube was stained with 1 μg/mL PerCP-Cy5.5-conjugated anti-CD3 (Biolegend, Cat. #100218) at 4° C. for 30 minutes.
# For macrophages, each FACS tube was stained with 1 μg/mL of PE-conjugated anti-CD11b antibody (Biolegend, Cat. #101207) and PerCP-Cy5.5-conjugated anti-F4/80 (Biolegend, Cat. #123128) and incubated at 4° C. for 30 minutes. The tubes were then washed with 2 mL of MACS buffer.
# To investigate the effects of compound GO15F according to the present invention on systemic immune responses in a lupus animal model, gene expression analysis of cytokines in kidney tissue was performed as described in (1).
# Each kidney tissue was used to isolate total RNA using TRIzol™ (Invitrozen, Cat. #15596018). RNA from each mouse was quantified at 1 μg using a micro-quantitative spectrophotometer (ThermoFisher Scientific, ND2000) and cDNA was synthesized.
# The synthesized cDNA from each mouse was quantified to a concentration of 50 ng using a micro-quantitative spectrophotometer, and qPCR was performed for the cytokines ‘IL-2, IL-6, IL-10, IL-17, TNF-α, IFN-γ’ using a SYBR green probe (CFX96, BIO-RAD).
# To investigate the effects of drug administration on renal tissue in MRL/lpr mice, the tissue was fixed in 10% neutral buffered formalin at room temperature, followed by stepwise ethanol penetration for dehydration. The tissue was then embedded in xylene and paraffin.
# The blocked tissues were sectioned into 4 μm thick slices using a microtome, followed by deparaffinization, hydration, and staining.
# Hematoxylin & Eosin staining, PAS staining, and Masson trichrome staining were performed for pathological evaluation of the tissues. […]
# [4] = test system: NHDF (Normal Human Dermal Fibroblast) cells; experiment: Doxorubicin-induced aging NHDF cell model, SA-β-gal and Ki-67; type: cell-based; details: Doxorubicin (100 ng/ml) and IGF-1 (100 ng/ml), GO15F 0.01, 1 μM, 7 days
# Description: After pre-incubation, the medium was removed, and the cells were cultured for 7 days in medium containing Doxorubicin (100 ng/ml) and IGF-1 (100 ng/ml) with GO15F. During this process, the medium was replaced with fresh medium every 2 days. The cultured cells were washed with PBS, fixed with 1× fixation buffer for 15 minutes, washed again with PBS, and then 300 μL of 1× working SA-β-gal buffer was added to each well. The cells were incubated at 37° C. for 24 hours. After the reaction was terminated, the cells were washed with PBS, and the fluorescence intensity of β-gal-positive cells stained blue was observed and photographed using a light microscope. Additionally, to investigate the effect of the compound (GO15F) of the present invention on proliferation activity in aging-induced NHDF (Normal Human Dermal Fibroblast) cells, Ki-67 expression was measured via FACS analysis. First, NHDF cells were seeded at 1×10^4 cells per well in a 12-well plate and stabilized for 24 hours. Subsequently, the cells were pre-incubated with GO15F at a concentration of 0.01 μM for 24 hours. After pre-incubation, the medium was removed, and GO15F (0.01 μM) was added to the medium containing Doxorubicin (100 ng/ml) and IGF-1 (100 ng/ml), followed by incubation for 7 days with fresh medium replaced every 2 days. […]
# [5] = MRL/lpr mice, serum at necropsy, ELISA, vs control group
smiles,measurement,setting,value
"Nc1ncccc1C(=O)NCCCCCCCCCCCCF [Compound 57, 2-Amino-N-(12-fluoro-dodecyl)-nicotinamide]",collagen deposition (Masson's trichrome and Sirius red staining),[1],significantly reduced
same,expression of α-SMA (IHC),[1],significantly suppressed
same,PDK1 phosphorylation (phospho-PDK1 expression level),[2],inhibitory effect on PDK1 phosphorylation
same,hair growth on the facial region,"[3]; 41-week-old female MRL/lpr mice, GO15F (30 mg/kg), GO48 (1 mg/kg), GO88 (0.5 mg/kg) intraperitoneally once daily",hair growth was confirmed
same,renal pathological tissue (glomerular capillary loops),"[3]; MRL/lpr mice, H&E, PAS, Masson trichrome staining",glomerular capillary loops were well maintained
same,"B cells, T cells, and macrophages in the spleen","[3]; MRL/lpr mice, flow cytometry (B220, CD3, CD11b/F4/80)","reduced the increased B cells, T cells, and macrophages"
same,IgG deposition in kidney tissue,"[3]; MRL/lpr mice, immunofluorescence staining",significantly lower
same,concentration of anti-dsDNA IgG in the blood,[3]; [5],significantly lower
same,total IgG concentration in the blood,[3]; [5],significantly lower
same,protein concentration in urine,"[3]; MRL/lpr mice, weekly urine, Bradford, vs control group",significantly lower than that in the control group
same,number of β-gal-positive cells,[4],decreased
